{
  "source": "ChEMBL document CHEMBL4376820",
  "about": "“Homodimeric Tobramycin Adjuvant Repurposes Novobiocin as an Effective Antibacterial Agent against Gram-Negative Bacteria” (J Med Chem, 2019)",
  "key": {"Pseudomonas aeruginosa [1]": {"system": "Pseudomonas aeruginosa", "test": "Potentiation of novobiocin-induced antibacterial activity against colistin and carbapenem-resistant Pseudomonas aeruginosa 101243 clinical isolate assessed as novobiocin MIC at <= 7.1 uM incubated for 18 hrs by CLSI protocol based assay (reference value: 128 ug/ml)", "assay_type": "functional", "details": "Pseudomonas aeruginosa, 101243, 18 h"}, "Escherichia coli [2]": {"system": "Escherichia coli", "test": "Potentiation of novobiocin-induced antibacterial activity against colistin-resistant Escherichia coli 94474 clinical isolate harboring mcr-1 gene assessed as novobiocin MIC at <= 7.1 uM incubated for 18 hrs by CLSI protocol based assay (reference value: 256 ug/ml)", "assay_type": "functional", "details": "Escherichia coli, 94474, 18 h"}, "Acinetobacter baumannii [3]": {"system": "Acinetobacter baumannii", "test": "Potentiation of novobiocin-induced antibacterial activity against colistin-resistant Acinetobacter baumannii 92247 clinical isolate assessed as novobiocin MIC at <= 7.1 uM incubated for 18 hrs by CLSI protocol based assay (reference value: 4 ug/ml)", "assay_type": "functional", "details": "Acinetobacter baumannii, 92247, 18 h"}, "Pseudomonas aeruginosa [4]": {"system": "Pseudomonas aeruginosa", "test": "Induction of outer membrane permeabilization in Pseudomonas aeruginosa PAO1 assessed as increase in accumulation of NPN by measuring fluorescence intensity at 8 ug/ml measured immediately by NPN dye uptake assay", "assay_type": "organism-based"}, "Escherichia coli [5]": {"system": "Escherichia coli", "test": "Potentiation of novobiocin-induced antibacterial activity against colistin-resistant Escherichia coli 94393 clinical isolate harboring mcr-1 gene assessed as novobiocin MIC at <= 7.1 uM incubated for 18 hrs by CLSI protocol based assay (reference value: 128 ug/ml)", "assay_type": "functional", "details": "Escherichia coli, 94393, 18 h"}, "[6]": {"test": "Toxicity in Galleria mellonella larvae MDR Acinetobacter baumannii isolate assessed as larvae protection at 25 mg/kg in combination with novobiocin measured after 24 to 96 hrs relative to control", "assay_type": "ADME, organism-based", "details": "in vivo"}, "Acinetobacter baumannii [7]": {"system": "Acinetobacter baumannii", "test": "Potentiation of novobiocin-induced antibacterial activity against novobiocin and colistin resistant Acinetobacter baumannii ATCC 17978 mutant generated from seven serial passages by checkerboard assay", "assay_type": "functional, organism-based"}, "Enterobacter cloacae": {"system": "Enterobacter cloacae", "test": "Potentiation of novobiocin-induced antibacterial activity against colistin-resistant Enterobacter cloacae 118568 clinical solate assessed as novobiocin MIC at <= 7.1 uM incubated for 18 hrs by CLSI protocol based assay (reference value: 1024 ug/ml)", "assay_type": "functional", "details": "Enterobacter cloacae, 118568, 18 h"}, "Pseudomonas aeruginosa [8]": {"system": "Pseudomonas aeruginosa", "test": "Potentiation of novobiocin-induced antibacterial activity against carbapenem and colistin-resistant Pseudomonas aeruginosa 114228 clinical isolate assessed as novobiocin MIC at <= 7.1 uM incubated for 18 hrs by CLSI protocol based assay (reference value: 512 ug/ml)", "assay_type": "functional", "details": "Pseudomonas aeruginosa, 114228, 18 h"}, "Pseudomonas aeruginosa [9]": {"system": "Pseudomonas aeruginosa", "test": "Potentiation of novobiocin-induced antibacterial activity against wild type Pseudomonas aeruginosa PAO1 assessed as novobiocin MIC at <= 7.1 uM incubated for 18 hrs by CLSI protocol based assay (reference value: 512 ug/ml)", "assay_type": "functional", "details": "PAO1, 18 h"}, "Pseudomonas aeruginosa [10]": {"system": "Pseudomonas aeruginosa", "test": "Potentiation of novobiocin-induced antibacterial activity against carbapenem and colistin-resistant Pseudomonas aeruginosa 91433 clinical isolate assessed as novobiocin MIC at <= 7.1 uM incubated for 18 hrs by CLSI protocol based assay (reference value: 16 ug/ml)", "assay_type": "functional", "details": "Pseudomonas aeruginosa, 91433, 18 h"}, "Klebsiella pneumoniae": {"system": "Klebsiella pneumoniae", "test": "Potentiation of novobiocin-induced antibacterial activity against colistin-resistant Klebsiella pneumoniae 113254 clinical isolate assessed as novobiocin MIC at <= 7.1 uM incubated for 18 hrs by CLSI protocol based assay (reference value: 256 ug/ml)", "assay_type": "functional", "details": "Klebsiella pneumoniae, 113254, 18 h"}},
  "note": "Activity calls are given as the source filed them. No cut-off for these calls is given here. Positions of bridges follow the written chain, without caps; N, C: chain ends. Non-standard residues stand in square brackets, D forms with d. Residues, ends and D or L forms follow the SMILES beside them. Dab = NCC[C@H](N)C(=O)O",
  "data": [
    {"compound": "CC(C)C[C@@H]1NC(=O)[C@@H](Cc2ccccc2)NC(=O)[C@H](CCN)NC(=O)[C@@H](NC(=O)[C@H](CCN)NC(=O)[C@@H](N)[C@@H](C)O)CCNC(=O)[C@H]([C@@H](C)O)NC(=O)[C@H](CCN)NC(=O)[C@H](CCN)NC1=O", "note": "[POLYMYXIN B NONAPEPTIDE] (H-T[Dab][Dab][Dab][dF]L[Dab][Dab]T; lactam 3-C)", "values": [
      {"measurement": "MIC", "setting": "Pseudomonas aeruginosa [1]", "result": 8, "unit": "µg/mL"},
      {"measurement": "MIC", "setting": "Escherichia coli [2]", "result": 32, "unit": "µg/mL"},
      {"measurement": "MIC", "setting": "Acinetobacter baumannii [3]", "result": 1, "unit": "µg/mL"},
      {"measurement": "Activity", "setting": "Pseudomonas aeruginosa [4]", "result": "Active"},
      {"measurement": "MIC", "setting": "Escherichia coli [5]", "result": 4, "unit": "µg/mL"},
      {"measurement": "Activity", "setting": "[6]", "result": 35, "unit": "%"},
      {"measurement": "Activity", "setting": "Acinetobacter baumannii [7]", "result": "inactive"},
      {"measurement": "MIC", "setting": "Enterobacter cloacae", "result": 512, "unit": "µg/mL"},
      {"measurement": "MIC", "setting": "Pseudomonas aeruginosa [8]", "result": 128, "unit": "µg/mL"},
      {"measurement": "MIC", "setting": "Pseudomonas aeruginosa [9]", "result": 4, "unit": "µg/mL"},
      {"measurement": "MIC", "setting": "Pseudomonas aeruginosa [10]", "result": 4, "unit": "µg/mL"},
      {"measurement": "MIC", "setting": "Klebsiella pneumoniae", "result": 64, "unit": "µg/mL"}
    ]}
  ]
}
